The record followed here is patent publication US6696607B2 (priority 2000, dated 2004).

This assay concerns Phytophthora infestans. The format is in vivo. Particulars: 63 ppm active ingredient; tomato leaves infected one week after application; assessed after 6 days; untreated plants 100%.

Each structure is given as a SMILES string.

For the compound `CO/N=C(/C(=O)NCCc1ccc(OC)c(OC)c1)c1ccc(Cl)cc1` [comparative active ingredient], the disease level is 40%.
